Where two headings read alike, the source gives them in different places.
Biological target: T1, mGluR2 receptor (metabotropic glutamate receptor 2) (Homo sapiens, UniProt Q14416)
T1 construct: expressed in transfected cells
Test: mGluR2 Potentiator Screen, FLIPR, EC10-EC20 glutamate challenge
Type: cell-based
Settings: read-out: EC50
Summary of the method: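 HEK cells stably co-expressing mGluR2 and Gα15, kept glutamine-free overnight, were loaded with Fluo-4 plus probenecid and GPT/pyruvate. Compounds (top 10 μM) were added ≥30 min before an EC10–EC20 glutamate challenge. Peak FLIPR fluorescence ratios were curve-fitted, excluding points above maximal effect, with maxima from on-plate standards.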

[1] = mGluR2 potentiator screen, Table 7

T1 sequence (Q14416 19-872, species assumed): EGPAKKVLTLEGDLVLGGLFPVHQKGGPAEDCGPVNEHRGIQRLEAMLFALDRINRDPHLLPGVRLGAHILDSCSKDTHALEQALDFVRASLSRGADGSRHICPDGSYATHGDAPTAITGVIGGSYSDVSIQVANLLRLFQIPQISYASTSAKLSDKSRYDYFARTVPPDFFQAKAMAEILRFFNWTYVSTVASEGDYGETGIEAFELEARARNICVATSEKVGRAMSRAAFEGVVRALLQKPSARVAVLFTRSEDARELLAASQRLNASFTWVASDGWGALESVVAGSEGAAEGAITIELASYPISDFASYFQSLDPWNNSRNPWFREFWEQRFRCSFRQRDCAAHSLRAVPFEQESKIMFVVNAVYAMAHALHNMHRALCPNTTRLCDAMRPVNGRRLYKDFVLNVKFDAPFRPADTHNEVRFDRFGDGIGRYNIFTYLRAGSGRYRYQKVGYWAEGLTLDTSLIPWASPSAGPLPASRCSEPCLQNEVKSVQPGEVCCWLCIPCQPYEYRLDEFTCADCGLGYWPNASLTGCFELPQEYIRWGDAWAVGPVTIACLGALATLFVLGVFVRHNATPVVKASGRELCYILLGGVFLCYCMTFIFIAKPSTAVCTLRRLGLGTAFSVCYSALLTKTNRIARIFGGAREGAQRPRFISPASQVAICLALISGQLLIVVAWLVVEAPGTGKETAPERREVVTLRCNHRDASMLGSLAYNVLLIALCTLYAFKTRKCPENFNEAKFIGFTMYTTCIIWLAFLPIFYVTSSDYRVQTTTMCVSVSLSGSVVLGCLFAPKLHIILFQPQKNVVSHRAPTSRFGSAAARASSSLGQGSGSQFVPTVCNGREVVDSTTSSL

Compound | EC50 | EC50 [1]
CCCCN1CC2(CCN(Cc3nc4ccccc4n3C)CC2)c2cc(C)ccc21 [compound 139] | 1970 nM | 
CCCCN1CC2(CCN(Cc3nc4ccccc4n3C)CC2)c2cc(F)ccc21 [compound 140] | 2120 nM | 
CCC(C)CN1CC2(CCN(Cc3nc4ccccc4n3C)CC2)c2cc(C)ccc21 (stereo not shown) [compound 141] | 5670 nM | 
Cc1ccc2c(c1)C1(CCN(Cc3nc4ccccc4n3C)CC1)CN2CC1CC1 [compound 142] | 3020 nM | 
Cc1ccc2c(c1)C1(CCN(Cc3nc4ccccc4n3C)CC1)CN2 [compound 143] | > 8670 nM | 
CCCN1CC2(CCN(Cc3nc4ccccc4n3C)CC2)c2cc(C)ccc21 [compound 144] | 2370 nM | 
CCCN1CC2(CCN(Cc3nc4ccccc4n3C)CC2)c2cc(C)cc(C)c21 [compound 145] | 2690 nM | 
Cc1ccc2c(c1)C1(CCN(Cc3nc4ccccc4n3C)CC1)CN2C [compound 146] | 1670 nM | 
Cc1cc(C)c2c(c1)C1(CCN(Cc3nc4ccccc4n3C)CC1)CN2 [compound 147] | 5810 nM | 
CCC(C)CN1CC2(CCN(Cc3nc4ccccc4n3C)CC2)c2cc(C)cc(C)c21 (stereo not shown) [compound 148] | 4730 nM | 
CCCCN1CC2(CCN(Cc3nc4ccccc4n3C)CC2)c2cc(C)cc(C)c21 [compound 149] |  | 1640 nM
Cn1c(CN2CCC(c3ccccc3)C2)nc2ccccc21 (stereo not shown) [compound 151] |  | 4100 nM
Cn1c(CN2CCC(c3ccccc3Cl)C2)nc2ccccc21 (stereo not shown) [compound 152] |  | 371 nM
COC(=O)[C@H]1CN(Cc2nc3ccccc3n2C)C[C@@H]1c1ccc(C(F)(F)F)cc1 [compound 153] |  | 4790 nM
COc1ccc(OC)c(C2CCN(Cc3nc4ccccc4n3C)C2)c1 (stereo not shown) [compound 154] |  | 285 nM
Cn1c(CN2CCC(c3ccc(F)cc3)C2)nc2ccccc21 (stereo not shown) [compound 155] |  | 1650 nM
COC(=O)[C@H]1CN(Cc2nc3ccccc3n2C)C[C@@H]1c1ccc(Cl)cc1 [compound 156] |  | 8550 nM
Cn1c(CN2CCC(c3ccccc3F)CC2)nc2c(Br)cccc21 [compound 157] |  | 836 nM
Cn1c(CN2CCC(Cc3ccccc3)C2)nc2ccccc21 (stereo not shown) [compound 158] |  | 865 nM
Cn1c(CN2CCC(c3ccccc3Cl)CC2)nc2c(Br)cccc21 [compound 160] |  | 862 nM
Cn1c(CN2CCC(c3ccccc3Cl)CC2)nc2ccccc21 [compound 161] |  | 144 nM
Cn1c(CN2CCC(c3cccc(C(F)(F)F)c3)CC2)nc2ccccc21 [compound 162] |  | 254 nM

Compound | EC50 | EC50 [1]
COc1ccc(OC)c(C2CCN(Cc3nc4ccccc4n3C)CC2)c1 [compound 163] |  | 928 nM
Cn1c(CN2CCC(c3ccc(C(F)(F)F)cc3)CC2)nc2c(Br)cccc21 [compound 164] |  | 838 nM
COc1ccc(OC)c(C2CCN(Cc3nc4c(Br)cccc4n3C)CC2)c1 [compound 165] |  | 2660 nM
Cn1c(CN2CCC(c3ccc(C(F)(F)F)cc3)CC2)nc2ccccc21 [compound 166] |  | 77.8 nM
Cn1c(CN2CCC(c3cccc(C(F)(F)F)c3)C(O)C2)nc2ccccc21 (stereo not shown) [compound 167] |  | 4380 nM
Cn1c(CN2CC[C@@H]3c4ccccc4CC[C@@H]3C2)nc2c(Br)cccc21 [compound 168] |  | 1200 nM
COc1ccccc1C1CCN(Cc2nc3c(Br)cccc3n2C)CC1 [compound 169] |  | 1230 nM
Cn1c(CN2CCC(c3cccc4ccc(C(N)=O)cc34)CC2)nc2c(Br)cccc21 [compound 170] |  | 8090 nM
COc1cccc2c1CC[C@H]1CN(Cc3nc4ccccc4n3C)CC[C@H]21 [compound 171] |  | 7550 nM
Cn1c(CN2CCC(c3cc(Cl)ccc3F)CC2)nc2ccccc21 [compound 172] |  | 8.28 nM
CC[C@H](C)COc1ccc(Cl)cc1C1CCN(Cc2nc3ccccc3n2CCF)CC1 [compound 173] |  | 1700 nM
CC[C@H](C)COc1ccc(Cl)cc1C1CCN(Cc2nc3ccccc3n2C)CC1 [compound 174] |  | 447 nM
CC[C@H](C)COc1ccc(Cl)cc1C1CCN(Cc2nc3ccccc3n2CF)CC1 [compound 175] |  | 8760 nM
CC[C@H](C)COc1ccc(Cl)cc1C1CCN(Cc2nc3ccccc3n2CCOC)CC1 [compound 176] |  | 1340 nM
CC(C)COc1ccc(Cl)cc1C1CCN(Cc2nc3ccccc3n2CF)CC1 [compound 177] |  | 3470 nM
CC(C)COc1ccc(Cl)cc1C1CCN(Cc2nc3ccccc3n2C)CC1 [compound 178] |  | 499 nM
CC(C)COc1ccc(Cl)cc1C1CCN(Cc2nc3ccccc3n2C2CC2)CC1 [compound 179] |  | 1740 nM
COCCn1c(CN2CCC(c3cc(Cl)ccc3OCC(C)C)CC2)nc2ccccc21 [compound 180] |  | 3020 nM
CC(C)COc1ccc(Cl)cc1C1CCN(Cc2nc3ccccc3n2CCF)CC1 [compound 181] |  | 2110 nM
CCCCOc1ccc(Cl)cc1C1CCN(Cc2nc3ccccc3n2CF)CC1 [compound 182] |  | 355 nM
CCCCOc1ccc(Cl)cc1C1CCN(Cc2nc3ccccc3n2C2CC2)CC1 [compound 183] |  | 1520 nM
CCCCOc1ccc(Cl)cc1C1CCN(Cc2nc3ccccc3n2CCOC)CC1 [compound 184] |  | 479 nM

Compound | EC50 | EC50 [1]
CCCCOc1ccc(Cl)cc1C1CCN(Cc2nc3ccccc3n2C)CC1 [compound 185] |  | 138 nM
CCCCOc1ccc(Cl)cc1C1CCN(Cc2nc3ccccc3n2CCF)CC1 [compound 186] |  | 246 nM
Clc1ccc(OCCC2CC2)c(C2CCN(Cc3nc4ccccc4n3C3CC3)CC2)c1 [compound 187] |  | 777 nM
FCn1c(CN2CCC(c3cc(Cl)ccc3OCCC3CC3)CC2)nc2ccccc21 [compound 188] |  | 566 nM
Cn1c(CN2CCC(c3cc(Cl)ccc3OCCC3CC3)CC2)nc2ccccc21 [compound 189] |  | 153 nM
FCCn1c(CN2CCC(c3cc(Cl)ccc3OCCC3CC3)CC2)nc2ccccc21 [compound 190] |  | 141 nM
COCCn1c(CN2CCC(c3cc(Cl)ccc3OCCC3CC3)CC2)nc2ccccc21 [compound 191] |  | 136 nM
Clc1ccc(OCC2CCC2)c(C2CCN(Cc3nc4ccccc4n3C3CC3)CC2)c1 [compound 192] |  | 2260 nM
FCn1c(CN2CCC(c3cc(Cl)ccc3OCC3CCC3)CC2)nc2ccccc21 [compound 193] |  | 2340 nM
Cn1c(CN2CCC(c3cc(Cl)ccc3OCC3CCC3)CC2)nc2ccccc21 [compound 194] |  | 473 nM
FCCn1c(CN2CCC(c3cc(Cl)ccc3OCC3CCC3)CC2)nc2ccccc21 [compound 195] |  | 1390 nM
COCCn1c(CN2CCC(c3cc(Cl)ccc3OCC3CCC3)CC2)nc2ccccc21 [compound 196] |  | 719 nM
CC1CC1COc1ccc(Cl)cc1C1CCN(Cc2nc3ccccc3n2CF)CC1 (stereo not shown) [compound 197] |  | 3260 nM
CC1CC1COc1ccc(Cl)cc1C1CCN(Cc2nc3ccccc3n2C2CC2)CC1 (stereo not shown) [compound 198] |  | 2250 nM
CC1CC1COc1ccc(Cl)cc1C1CCN(Cc2nc3ccccc3n2C)CC1 (stereo not shown) [compound 199] |  | 390 nM
CC1CC1COc1ccc(Cl)cc1C1CCN(Cc2nc3ccccc3n2CCF)CC1 (stereo not shown) [compound 200] |  | 1550 nM
COCCn1c(CN2CCC(c3cc(Cl)ccc3OCC3CC3C)CC2)nc2ccccc21 (stereo not shown) [compound 201] |  | 623 nM
Clc1ccc(OCC2CCOC2)c(C2CCN(Cc3nc4ccccc4n3C3CC3)CC2)c1 (stereo not shown) [compound 202] |  | 2880 nM
Cn1c(CN2CCC(c3cc(Cl)ccc3OCC3CCOC3)CC2)nc2ccccc21 (stereo not shown) [compound 203] |  | 712 nM
FCn1c(CN2CCC(c3cc(Cl)ccc3OCC3CCOC3)CC2)nc2ccccc21 (stereo not shown) [compound 204] |  | 3610 nM
COCCn1c(CN2CCC(c3cc(Cl)ccc3OCC3CCOC3)CC2)nc2ccccc21 (stereo not shown) [compound 205] |  | 3350 nM
Clc1ccc(OCC2CCCO2)c(C2CCN(Cc3nc4ccccc4n3C3CC3)CC2)c1 (stereo not shown) [compound 206] |  | 2600 nM

Compound | EC50 | EC50 [1]
Cn1c(CN2CCC(c3cc(Cl)ccc3OCC3CCCO3)CC2)nc2ccccc21 (stereo not shown) [compound 207] |  | 666 nM
FCn1c(CN2CCC(c3cc(Cl)ccc3OCC3CCCO3)CC2)nc2ccccc21 (stereo not shown) [compound 208] |  | 4130 nM
COCCn1c(CN2CCC(c3cc(Cl)ccc3OCC3CCCO3)CC2)nc2ccccc21 (stereo not shown) [compound 209] |  | 1700 nM
FCCn1c(CN2CCC(c3cc(Cl)ccc3OCC3CCCO3)CC2)nc2ccccc21 (stereo not shown) [compound 210] |  | 1040 nM
CC1(COc2ccc(Cl)cc2C2CCN(Cc3nc4ccccc4n3CF)CC2)COC1 [compound 211] |  | 8220 nM
CC1(COc2ccc(Cl)cc2C2CCN(Cc3nc4ccccc4n3CCF)CC2)COC1 [compound 212] |  | 10500 nM
Clc1ccc(OCC2CCCCO2)c(C2CCN(Cc3nc4ccccc4n3C3CC3)CC2)c1 (stereo not shown) [compound 214] |  | 2010 nM
FCn1c(CN2CCC(c3cc(Cl)ccc3OCC3CCCCO3)CC2)nc2ccccc21 (stereo not shown) [compound 215] |  | 1570 nM
Cn1c(CN2CCC(c3cc(Cl)ccc3OCC3CCCCO3)CC2)nc2ccccc21 (stereo not shown) [compound 216] |  | 534 nM
FCCn1c(CN2CCC(c3cc(Cl)ccc3OCC3CCCCO3)CC2)nc2ccccc21 (stereo not shown) [compound 217] |  | 1180 nM
COCCn1c(CN2CCC(c3cc(Cl)ccc3OCC3CCCCO3)CC2)nc2ccccc21 (stereo not shown) [compound 218] |  | 1550 nM
CCCOc1ccc(Cl)cc1C1CCN(Cc2nc3ccccc3n2C)CC1 [compound 220] |  | 216 nM
CCCOc1ccc(Cl)cc1C1CCN(Cc2nc3ccccc3n2CF)CC1 [compound 221] |  | 413 nM
CCCOc1ccc(Cl)cc1C1CCN(Cc2nc3ccccc3n2CCF)CC1 [compound 222] |  | 248 nM
CCCOc1ccc(Cl)cc1C1CCN(Cc2nc3ccccc3n2CCOC)CC1 [compound 223] |  | 233 nM
CCOc1ccc(Cl)cc1C1CCN(Cc2nc3ccccc3n2C)CC1 [compound 224] |  | 4260 nM
CCOc1ccc(Cl)cc1C1CCN(Cc2nc3ccccc3n2C2CC2)CC1 [compound 225] | 999 nM | 
CCOc1ccc(Cl)cc1C1CCN(Cc2nc3ccccc3n2CF)CC1 [compound 226] | 637 nM | 
CCOc1ccc(Cl)cc1C1CCN(Cc2nc3ccccc3n2CCF)CC1 [compound 227] | 210 nM | 
